In ChEMBL document CHEMBL3885861, “Open TG-GATES”:

Organism: Rattus norvegicus
Assay: Open TG-GATES - Regimen: Single
Type: toxicity, organism-based, Sprague-Dawley
Set-up: regimen Single, gender Male, age 6 weeks
Conditions: in vivo, po, route gavage; for WBC / APTT / Bas / Eos / Fbg / Hb / Ht / Lym / MCH / MCHC / MCV / Mono / Neu / PT / Plat / RBC / Ret: tissue Blood; for KIDNEY_L / KIDNEY_R / KIDNEY_TOTAL: tissue Kidney; for LIVER: tissue Liver; for ALP / ALT / AST / BUN / CRE / Ca / Cl / DBIL / GLC / IP / K / LDH / Na / PL / RALB / TBIL / TC / TP / gamma-GTP: tissue Plasma
[1] = 5 mg/kg, 9 h, dose level Middle
[2] = 5 mg/kg, 24 h, dose level Middle

O=P1(N(CCCl)CCCl)NCCCO1 (stereo unspecified) [CYCLOPHOSPHAMIDE ANHYDROUS]
WBC [1]: 57.2 x10_2/uL | KIDNEY_L [1]: 0.9 g | KIDNEY_R [1]: 0.9 g | KIDNEY_TOTAL [1]: 1.8 g | LIVER [1]: 7.9 g | ALP [1]: 1360.2 IU/L | ALT [1]: 35.2 IU/L | AST [1]: 65.8 IU/L | BUN [1]: 9 mg/dL | CRE [1]: 0.1 mg/dL | Ca [1]: 10.5 mg/dL | Cl [1]: 106.6 meq/L | DBIL [1]: 0.002 mg/dL | GLC [1]: 179.4 mg/dL | IP [1]: 9.7 mg/dL | K [1]: 4 meq/L | LDH [1]: 146.8 IU/L | Na [1]: 143.6 meq/L | PL [1]: 129.8 mg/dL | RALB [1]: 3 g/dL | TBIL [1]: 0.042 mg/dL | TC [1]: 76.8 mg/dL | TP [1]: 5.5 g/dL | gamma-GTP [1]: 1 IU/L | TERMINAL_BW [2]: 203.3 g | APTT [2]: 22.1 s | Bas [2]: 0% | Eos [2]: 1% | Fbg [2]: 307.6 mg/dL | Hb [2]: 12.8 g/dL | Ht [2]: 38.5% | Lym [2]: 88.4% | MCH [2]: 21.4 pg | MCHC [2]: 33.3% | MCV [2]: 64.1 fL | Mono [2]: 1.6% | Neu [2]: 8% | PT [2]: 16.2 s | Plat [2]: 134.5 x10_4/uL | RBC [2]: 600.4 x10_4/ul | Ret [2]: 7.3% | WBC [2]: 58.1 x10_2/uL | KIDNEY_L [2]: 0.9 g | KIDNEY_R [2]: 0.9 g | KIDNEY_TOTAL [2]: 1.9 g | LIVER [2]: 9.4 g | ALP [2]: 1835.8 IU/L | ALT [2]: 48.6 IU/L | AST [2]: 73.2 IU/L | BUN [2]: 15.4 mg/dL | CRE [2]: 0.2 mg/dL | Ca [2]: 10.7 mg/dL | Cl [2]: 105.2 meq/L | DBIL [2]: 0.002 mg/dL | GLC [2]: 180.2 mg/dL | IP [2]: 8 mg/dL | K [2]: 4.2 meq/L | LDH [2]: 156.8 IU/L | Na [2]: 142.8 meq/L | PL [2]: 148.4 mg/dL | RALB [2]: 3 g/dL | TBIL [2]: 0.014 mg/dL | TC [2]: 76.2 mg/dL | TP [2]: 5.5 g/dL | gamma-GTP [2]: 1 IU/L | TERMINAL_BW (15 mg/kg, 3 h, dose level High): 195.2 g | TERMINAL_BW (15 mg/kg, 3 h, dose level Low): 191.1 g | APTT (15 mg/kg, 3 h, dose level High): 21.4 s | Bas (15 mg/kg, 3 h, dose level High): 0% | Eos (15 mg/kg, 3 h, dose level High): 0.8% | Fbg (15 mg/kg, 3 h, dose level High): 291.2 mg/dL | Hb (15 mg/kg, 3 h, dose level High): 13 g/dL | Ht (15 mg/kg, 3 h, dose level High): 38.9% | Lym (15 mg/kg, 3 h, dose level High): 76.2% | MCH (15 mg/kg, 3 h, dose level High): 21.2 pg | MCHC (15 mg/kg, 3 h, dose level High): 33.4% | MCV (15 mg/kg, 3 h, dose level High): 63.4 fL | Mono (15 mg/kg, 3 h, dose level High): 1.8% | Neu (15 mg/kg, 3 h, dose level High): 20.2% | PT (15 mg/kg, 3 h, dose level High): 15.6 s | Plat (15 mg/kg, 3 h, dose level High): 120 x10_4/uL | RBC (15 mg/kg, 3 h, dose level High): 613.8 x10_4/ul | Ret (15 mg/kg, 3 h, dose level High): 8.2% | WBC (15 mg/kg, 3 h, dose level High): 75.9 x10_2/uL | APTT (15 mg/kg, 3 h, dose level Low): 16.4 s | Fbg (15 mg/kg, 3 h, dose level Low): 273.4 mg/dL | Hb (15 mg/kg, 3 h, dose level Low): 12.8 g/dL | Ht (15 mg/kg, 3 h, dose level Low): 38.1% | Lym (15 mg/kg, 3 h, dose level Low): 81.6% | MCH (15 mg/kg, 3 h, dose level Low): 21 pg | MCHC (15 mg/kg, 3 h, dose level Low): 33.5% | MCV (15 mg/kg, 3 h, dose level Low): 62.8 fL | Mono (15 mg/kg, 3 h, dose level Low): 2.8% | Neu (15 mg/kg, 3 h, dose level Low): 14.2% | PT (15 mg/kg, 3 h, dose level Low): 13.8 s | Plat (15 mg/kg, 3 h, dose level Low): 112.1 x10_4/uL | RBC (15 mg/kg, 3 h, dose level Low): 608.2 x10_4/ul | Ret (15 mg/kg, 3 h, dose level Low): 8.6% | WBC (15 mg/kg, 3 h, dose level Low): 94.2 x10_2/uL | KIDNEY_L (15 mg/kg, 3 h, dose level High): 0.9 g | KIDNEY_R (15 mg/kg, 3 h, dose level High): 0.9 g | KIDNEY_TOTAL (15 mg/kg, 3 h, dose level High): 1.7 g | KIDNEY_L (15 mg/kg, 3 h, dose level Low): 0.8 g | KIDNEY_R (15 mg/kg, 3 h, dose level Low): 0.8 g | KIDNEY_TOTAL (15 mg/kg, 3 h, dose level Low): 1.6 g | LIVER (15 mg/kg, 3 h, dose level High): 9 g | LIVER (15 mg/kg, 3 h, dose level Low): 8.5 g | ALP (15 mg/kg, 3 h, dose level High): 1506.2 IU/L | ALT (15 mg/kg, 3 h, dose level High): 38.8 IU/L | AST (15 mg/kg, 3 h, dose level High): 70.6 IU/L | BUN (15 mg/kg, 3 h, dose level High): 11 mg/dL | CRE (15 mg/kg, 3 h, dose level High): 0.1 mg/dL | Ca (15 mg/kg, 3 h, dose level High): 10.7 mg/dL | Cl (15 mg/kg, 3 h, dose level High): 105.6 meq/L | DBIL (15 mg/kg, 3 h, dose level High): 0 mg/dL | GLC (15 mg/kg, 3 h, dose level High): 179.4 mg/dL | IP (15 mg/kg, 3 h, dose level High): 9.1 mg/dL | K (15 mg/kg, 3 h, dose level High): 4.1 meq/L | LDH (15 mg/kg, 3 h, dose level High): 197.8 IU/L | Na (15 mg/kg, 3 h, dose level High): 142.6 meq/L | PL (15 mg/kg, 3 h, dose level High): 136 mg/dL | RALB (15 mg/kg, 3 h, dose level High): 2.9 g/dL | TBIL (15 mg/kg, 3 h, dose level High): 0.032 mg/dL | TC (15 mg/kg, 3 h, dose level High): 71.8 mg/dL | TP (15 mg/kg, 3 h, dose level High): 5.3 g/dL | gamma-GTP (15 mg/kg, 3 h, dose level High): 1 IU/L | ALP (15 mg/kg, 3 h, dose level Low): 1407.8 IU/L | ALT (15 mg/kg, 3 h, dose level Low): 39 IU/L | AST (15 mg/kg, 3 h, dose level Low): 74.2 IU/L | BUN (15 mg/kg, 3 h, dose level Low): 10.2 mg/dL | CRE (15 mg/kg, 3 h, dose level Low): 0.2 mg/dL | Ca (15 mg/kg, 3 h, dose level Low): 10.9 mg/dL | DBIL (15 mg/kg, 3 h, dose level Low): 0.014 mg/dL | GLC (15 mg/kg, 3 h, dose level Low): 173.8 mg/dL | IP (15 mg/kg, 3 h, dose level Low): 8.1 mg/dL | K (15 mg/kg, 3 h, dose level Low): 4.4 meq/L | LDH (15 mg/kg, 3 h, dose level Low): 64 IU/L | Na (15 mg/kg, 3 h, dose level Low): 141.2 meq/L | PL (15 mg/kg, 3 h, dose level Low): 136.4 mg/dL | RALB (15 mg/kg, 3 h, dose level Low): 2.4 g/dL | TBIL (15 mg/kg, 3 h, dose level Low): 0.056 mg/dL
